“And” between values parts separate entries of the source, which are not always exact repeats. Equal entries are not always repeated.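 Results reflect a 48-hour exposure of cells in 96-well plates to compound at five concentrations. GI50 = concentration required for 50% inhibition of growth. TGI marks complete inhibition of growth.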
How the values were obtained:
Assay in all cases: growth of human tumour cells (NCI), 48 h
SK-MEL-5 melanoma = test system: SK-MEL-5 melanoma
CCRF-CEM leukemia = test system: CCRF-CEM leukemia
EKVX NSCLC = test system: EKVX NSCLC
UACC-62 melanoma = test system: UACC-62 melanoma
LOX IMVI melanoma = test system: LOX IMVI melanoma
U251 CNS = test system: U251 CNS
SK-OV-3 ovarian = test system: SK-OV-3 ovarian
NCI/ADR-RES ovarian = test system: NCI/ADR-RES ovarian
MDA-MB-231 breast = test system: MDA-MB-231 breast
T-47D breast = test system: T-47D breast

COC(=O)c1cc2c(=O)n(C)c3ccccc3n2c1C(=O)OC
TGI (SK-MEL-5 melanoma): > 100 µM
TGI (CCRF-CEM leukemia): > 100 µM
TGI (EKVX NSCLC): 78.2 µM
TGI (UACC-62 melanoma): > 100 µM
TGI (LOX IMVI melanoma): > 100 µM
TGI (U251 CNS): 58.8 µM
TGI (SK-OV-3 ovarian): 66.8 µM

C=C[C@@H](C)[C@]1(C(=O)OC)CCCC12OCCO2
TGI (SK-MEL-5 melanoma): > 100 µM
TGI (CCRF-CEM leukemia): > 100 µM
TGI (EKVX NSCLC): > 100 µM
TGI (UACC-62 melanoma): > 100 µM
TGI (LOX IMVI melanoma): > 100 µM
TGI (U251 CNS): > 100 µM
TGI (SK-OV-3 ovarian): > 100 µM

Cc1cnc2ccc(C)c([N+](=O)[O-])c2c1NCCCN(C)C
TGI (CCRF-CEM leukemia): > 100 µM
TGI (EKVX NSCLC): > 100 µM
TGI (LOX IMVI melanoma): > 100 µM
TGI (U251 CNS): > 100 µM
TGI (SK-OV-3 ovarian): > 100 µM

Cc1c(C)n(CCCN2CCN(C)CC2)c2ccc(Oc3cccc(C(=O)N4CCN(CCc5ccc(F)cc5)CC4)c3)cc12
GI50 (SK-MEL-5 melanoma): 1.71 µM
TGI (SK-MEL-5 melanoma): 3.08 µM
GI50 (NCI/ADR-RES ovarian): 1.79 µM
TGI (NCI/ADR-RES ovarian): 3.54 µM
GI50 (EKVX NSCLC): 1.65 µM
TGI (EKVX NSCLC): 3.12 µM
GI50 (UACC-62 melanoma): 1.87 µM
TGI (UACC-62 melanoma): 3.58 µM
GI50 (LOX IMVI melanoma): 1.75 µM
TGI (LOX IMVI melanoma): 3.19 µM
GI50 (U251 CNS): 1.66 µM
TGI (U251 CNS): 3.28 µM
GI50 (SK-OV-3 ovarian): 1.91 µM
TGI (SK-OV-3 ovarian): 3.62 µM
GI50 (MDA-MB-231 breast): 1.82 µM
TGI (MDA-MB-231 breast): 3.43 µM

N#C/C(=C\c1cc(O)cc(O)c1)C(N)=O
TGI (CCRF-CEM leukemia): > 100 µM
TGI (EKVX NSCLC): > 100 µM
TGI (UACC-62 melanoma): > 100 µM
TGI (U251 CNS): > 100 µM
TGI (SK-OV-3 ovarian): > 100 µM

COC(COC(N)=O)C1=C(N2CC2)C(=O)C(C)=C(N2CC2)C1=O (centres undefined)
TGI (SK-MEL-5 melanoma): 0.128 µM
TGI (CCRF-CEM leukemia): 24.6 µM
TGI (NCI/ADR-RES ovarian): 0.101 µM
TGI (EKVX NSCLC): 1.24 µM
TGI (UACC-62 melanoma): 0.173 µM
TGI (LOX IMVI melanoma): 0.326 µM
TGI (U251 CNS): 0.698 µM
TGI (SK-OV-3 ovarian): 1.8 µM
TGI (MDA-MB-231 breast): 0.859 µM

CN(CCS(=O)(=O)N1C(=O)C2CCCN2C(=O)[C@@H]1Cc1ccccc1)C(=O)OCc1ccccc1 (some centres undefined)
TGI (SK-MEL-5 melanoma): > 100 µM
TGI (CCRF-CEM leukemia): > 100 µM
TGI (EKVX NSCLC): > 100 µM
TGI (UACC-62 melanoma): 95.7 µM
TGI (LOX IMVI melanoma): > 100 µM
TGI (U251 CNS): > 100 µM
TGI (SK-OV-3 ovarian): > 100 µM

COc1ccc(Cc2c3cc(O)c(=O)cc-3ccn2C)cc1
TGI (SK-MEL-5 melanoma): > 76.1 µM
TGI (CCRF-CEM leukemia): > 76.3 µM
TGI (EKVX NSCLC): > 100 µM
TGI (UACC-62 melanoma): 61 µM
TGI (LOX IMVI melanoma): 34.5 µM
TGI (U251 CNS): > 100 µM
TGI (SK-OV-3 ovarian): > 100 µM

COC(=O)[C@@H]1c2cc3c(c(O)c2[C@@H](OC2OC(C)C(OC)C(C)(OC)C2OC)C[C@]1(C)O)C(=O)c1c(O)cc2c(c1C3=O)O[C@H]1O[C@]2(C)[C@H](O)[C@@H](N(C)C)[C@@H]1O (some centres undefined)
TGI (SK-MEL-5 melanoma): 0.0278 µM
TGI (T-47D breast): 0.889 µM
TGI (CCRF-CEM leukemia): 0.198 µM and 0.258 µM
GI50 (EKVX NSCLC): 0.103 µM
TGI (UACC-62 melanoma): 0.0206 µM and 0.0277 µM
TGI (LOX IMVI melanoma): 0.152 µM and 1.22 µM
TGI (U251 CNS): 0.443 µM and 0.236 µM
TGI (SK-OV-3 ovarian): 4.94 µM
TGI (MDA-MB-231 breast): 0.214 µM

O=C1[C@H]2ON(c3ccccc3)C(c3ccc([N+](=O)[O-])cc3)[C@H]2C(=O)N1c1ccc(Cc2ccc(N3C(=O)[C@@H]4ON(c5ccccc5)C(c5ccc([N+](=O)[O-])cc5)[C@@H]4C3=O)cc2)cc1 (some centres undefined)
TGI (SK-MEL-5 melanoma): > 100 µM
TGI (CCRF-CEM leukemia): > 100 µM
TGI (EKVX NSCLC): > 100 µM
TGI (UACC-62 melanoma): > 100 µM
TGI (LOX IMVI melanoma): > 100 µM
TGI (U251 CNS): > 100 µM
TGI (SK-OV-3 ovarian): > 100 µM

CC1(C)OC2C(CCP(=O)(O)O)OC(c3nc(C(N)=O)cs3)C2O1 (centres undefined)
TGI (CCRF-CEM leukemia): > 100 µM
TGI (EKVX NSCLC): > 100 µM
TGI (UACC-62 melanoma): > 100 µM
TGI (LOX IMVI melanoma): > 100 µM
TGI (U251 CNS): > 100 µM
TGI (SK-OV-3 ovarian): > 100 µM

Cc1nc2sccn2c1C(=O)NN
TGI (SK-MEL-5 melanoma): > 100 µM
TGI (CCRF-CEM leukemia): > 100 µM
TGI (EKVX NSCLC): > 100 µM
TGI (UACC-62 melanoma): > 100 µM
TGI (LOX IMVI melanoma): > 100 µM
TGI (U251 CNS): > 100 µM
TGI (SK-OV-3 ovarian): > 100 µM

CC(C)(C)C1=CC(=C(P(=O)(O)O)P(=O)(O)O)C=C(C(C)(C)C)C1=O
TGI (SK-MEL-5 melanoma): > 50 µM
TGI (CCRF-CEM leukemia): > 50 µM
TGI (EKVX NSCLC): > 50 µM
TGI (UACC-62 melanoma): > 50 µM
TGI (LOX IMVI melanoma): > 50 µM
TGI (SK-OV-3 ovarian): > 50 µM

O=C(NCCCCN1CCOCC1)c1cc2ccccc2o1
GI50 (SK-MEL-5 melanoma): > 100 µM
TGI (SK-MEL-5 melanoma): > 100 µM
GI50 (T-47D breast): > 100 µM
TGI (T-47D breast): > 100 µM
GI50 (NCI/ADR-RES ovarian): > 100 µM
TGI (NCI/ADR-RES ovarian): > 100 µM
GI50 (EKVX NSCLC): > 100 µM
TGI (EKVX NSCLC): > 100 µM
GI50 (UACC-62 melanoma): > 100 µM
TGI (UACC-62 melanoma): > 100 µM
GI50 (LOX IMVI melanoma): > 100 µM
TGI (LOX IMVI melanoma): > 100 µM
GI50 (U251 CNS): > 100 µM
TGI (U251 CNS): > 100 µM
GI50 (SK-OV-3 ovarian): > 100 µM
TGI (SK-OV-3 ovarian): > 100 µM
GI50 (MDA-MB-231 breast): > 100 µM
TGI (MDA-MB-231 breast): > 100 µM

COc1ccc(C(c2ccccc2)(c2ccc(OC)cc2)N2C(=O)NC3C(CCCCC(=O)NCCCCCCOP(OCCC#N)N(C(C)C)C(C)C)SCC32)cc1 (centres undefined)
TGI (SK-MEL-5 melanoma): 31 µM
TGI (CCRF-CEM leukemia): 25.6 µM
TGI (EKVX NSCLC): 56.5 µM
TGI (UACC-62 melanoma): 27.4 µM
TGI (LOX IMVI melanoma): 24 µM
TGI (U251 CNS): 28.5 µM

CC(C)N(C(=O)C12C3C4C5(C#N)C3C1(C#N)C5C42C#N)C(C)C (centres undefined)
TGI (SK-MEL-5 melanoma): > 100 µM
TGI (CCRF-CEM leukemia): > 100 µM
TGI (EKVX NSCLC): > 100 µM
TGI (UACC-62 melanoma): > 100 µM
TGI (LOX IMVI melanoma): > 100 µM
TGI (U251 CNS): > 100 µM
TGI (SK-OV-3 ovarian): > 100 µM

O=C(CCC(=O)Nc1ccc(Cl)c(Cl)c1)Cc1nc2ccccc2o1
TGI (SK-MEL-5 melanoma): > 100 µM
TGI (CCRF-CEM leukemia): > 100 µM
TGI (EKVX NSCLC): > 100 µM
TGI (UACC-62 melanoma): > 100 µM
TGI (LOX IMVI melanoma): > 100 µM
TGI (U251 CNS): > 100 µM
TGI (SK-OV-3 ovarian): > 100 µM

CC(C)(C)C(=O)OCOP(=O)(NCc1ccccc1)C1CCCN(O)C1=O (centres undefined)
GI50 (SK-MEL-5 melanoma): 1.76 µM
TGI (SK-MEL-5 melanoma): 4.33 µM
GI50 (T-47D breast): 1.98 µM
TGI (T-47D breast): 57.6 µM
GI50 (CCRF-CEM leukemia): 0.558 µM
TGI (CCRF-CEM leukemia): > 100 µM
GI50 (NCI/ADR-RES ovarian): 2.03 µM
TGI (NCI/ADR-RES ovarian): 6.65 µM
GI50 (EKVX NSCLC): 3.91 µM
TGI (EKVX NSCLC): 78.8 µM
GI50 (UACC-62 melanoma): 2.22 µM
TGI (UACC-62 melanoma): 6.49 µM
GI50 (LOX IMVI melanoma): 2.85 µM
TGI (LOX IMVI melanoma): 15.8 µM
GI50 (U251 CNS): 2.45 µM
TGI (U251 CNS): > 100 µM
GI50 (MDA-MB-231 breast): 2.3 µM
TGI (MDA-MB-231 breast): 19.9 µM

CC(=O)Nc1ccc(/C=C/C(=O)c2sc(-c3cccnc3)nc2C)cc1
TGI (SK-MEL-5 melanoma): > 100 µM
TGI (CCRF-CEM leukemia): > 100 µM
TGI (EKVX NSCLC): > 100 µM
TGI (UACC-62 melanoma): > 100 µM
TGI (LOX IMVI melanoma): > 100 µM
TGI (U251 CNS): > 100 µM
TGI (SK-OV-3 ovarian): > 100 µM

Cc1nc([N+](=O)[O-])cn1-c1nc2ccccn2c1[N+](=O)[O-]
TGI (SK-MEL-5 melanoma): > 100 µM
TGI (T-47D breast): > 100 µM
TGI (NCI/ADR-RES ovarian): > 100 µM
TGI (EKVX NSCLC): > 100 µM
TGI (UACC-62 melanoma): > 100 µM
TGI (U251 CNS): > 100 µM
TGI (SK-OV-3 ovarian): > 100 µM
TGI (MDA-MB-231 breast): > 100 µM

O=C(C(=O)c1cc2ccccc2[nH]1)c1cc2ccccc2[nH]1
TGI (SK-MEL-5 melanoma): > 347 µM
TGI (CCRF-CEM leukemia): > 347 µM
TGI (EKVX NSCLC): > 347 µM
TGI (UACC-62 melanoma): > 347 µM
TGI (LOX IMVI melanoma): > 347 µM
TGI (U251 CNS): > 347 µM
TGI (SK-OV-3 ovarian): > 347 µM

O=c1c2c(nc3n1CCS3)[nH]c1cc([N+](=O)[O-])ccc12
GI50 (T-47D breast): 45 µM
TGI (T-47D breast): > 100 µM
GI50 (CCRF-CEM leukemia): > 100 µM
TGI (CCRF-CEM leukemia): > 100 µM
GI50 (NCI/ADR-RES ovarian): > 100 µM
TGI (NCI/ADR-RES ovarian): > 100 µM
GI50 (EKVX NSCLC): > 100 µM
TGI (EKVX NSCLC): > 100 µM
GI50 (UACC-62 melanoma): > 100 µM
TGI (UACC-62 melanoma): > 100 µM
GI50 (LOX IMVI melanoma): > 100 µM
TGI (LOX IMVI melanoma): > 100 µM
GI50 (U251 CNS): > 100 µM
TGI (U251 CNS): > 100 µM
GI50 (SK-OV-3 ovarian): > 100 µM
TGI (SK-OV-3 ovarian): > 100 µM
GI50 (MDA-MB-231 breast): > 100 µM
TGI (MDA-MB-231 breast): > 100 µM

From PubChem BioAssay (NCI)
